Values quoted from earlier work, collected in patent US20220288056A1, “PHARMACEUTICAL COMPOSITION CONTAINING NITROXOLINE, NITROXOLINE ORAL SOLID TABLET, PREPARATION METHOD THEREFOR AND USE THEREOF” (Jiangsu Yahong Meditech Co., Ltd., priority 2019, published 2022).

Legend:
[1] = target: T1, methionine aminopeptidase MetAP2 (Homo sapiens, UniProt P50579); conditions: vascular endothelial cells
T1 construct: host or cells: vascular endothelial cells

[2] = target: T2, silence information regulator 2-related enzyme SIRT1 (Homo sapiens, UniProt Q96EB6); conditions: vascular endothelial cells
T2 construct: host or cells: vascular endothelial cells
T2 sequence (Q96EB6 1-747): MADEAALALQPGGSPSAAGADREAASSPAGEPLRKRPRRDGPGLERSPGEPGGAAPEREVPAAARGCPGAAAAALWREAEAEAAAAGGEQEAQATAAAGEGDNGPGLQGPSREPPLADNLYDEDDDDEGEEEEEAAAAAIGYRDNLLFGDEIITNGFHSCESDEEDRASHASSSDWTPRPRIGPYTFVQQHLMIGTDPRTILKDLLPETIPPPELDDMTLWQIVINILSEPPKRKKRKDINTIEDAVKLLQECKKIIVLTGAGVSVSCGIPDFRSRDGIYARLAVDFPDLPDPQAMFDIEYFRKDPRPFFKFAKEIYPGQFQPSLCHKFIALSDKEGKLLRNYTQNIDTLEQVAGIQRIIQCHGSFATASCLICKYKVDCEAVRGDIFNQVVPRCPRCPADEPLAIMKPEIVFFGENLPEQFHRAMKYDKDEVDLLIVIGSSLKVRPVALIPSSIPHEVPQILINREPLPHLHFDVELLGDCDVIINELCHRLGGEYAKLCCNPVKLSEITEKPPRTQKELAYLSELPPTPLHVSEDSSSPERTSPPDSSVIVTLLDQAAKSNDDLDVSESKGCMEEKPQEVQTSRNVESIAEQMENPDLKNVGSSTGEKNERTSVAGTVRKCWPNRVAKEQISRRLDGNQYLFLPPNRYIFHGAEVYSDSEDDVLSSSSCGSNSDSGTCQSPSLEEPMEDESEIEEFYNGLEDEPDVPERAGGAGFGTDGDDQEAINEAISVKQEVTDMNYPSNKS

T1 sequence (P50579 whole entry): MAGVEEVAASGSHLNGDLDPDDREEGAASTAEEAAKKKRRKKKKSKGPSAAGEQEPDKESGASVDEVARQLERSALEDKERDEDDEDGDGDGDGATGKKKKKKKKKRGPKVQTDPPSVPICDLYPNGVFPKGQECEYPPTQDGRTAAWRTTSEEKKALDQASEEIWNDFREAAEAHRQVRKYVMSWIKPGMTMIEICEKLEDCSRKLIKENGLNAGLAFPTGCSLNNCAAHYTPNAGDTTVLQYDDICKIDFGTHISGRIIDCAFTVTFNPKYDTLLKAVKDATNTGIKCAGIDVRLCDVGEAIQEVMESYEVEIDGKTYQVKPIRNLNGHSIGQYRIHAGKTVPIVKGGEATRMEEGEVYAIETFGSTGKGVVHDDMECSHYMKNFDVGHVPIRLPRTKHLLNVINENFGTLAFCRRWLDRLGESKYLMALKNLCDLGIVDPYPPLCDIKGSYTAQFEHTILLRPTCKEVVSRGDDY

For `O=[N+]([O-])c1ccc(O)c2ncccc12` [Nitroxoline, 5-nitro-8-hydroxyquinoline], which “inhibition of MetAP2” value [1] is on record?
Its value is “inhibit”.

And the “inhibition of SIRT1” value [2]?
The value was “inhibit”.
